Test: hygroscopicity analysis (DVS)
Assay type: physicochemical
Text: The crystal form B of pyrroloquinoline quinone provided by the present invention is characterized by solid-state methods, such as an X-ray powder diffraction (XRPD), a thermogravimetric analysis (TG), a differential scanning calorimetry analysis (DSC), an infrared (IR) analysis, and a hygroscopicity analysis (DVS). A solid sample of the crystal form B of pyrroloquinoline quinone obtained in Example 1 was subjected to a hygroscopicity analysis.

O=C(O)c1cc(C(=O)O)c2c(n1)C(=O)C(=O)c1cc(C(=O)O)[nH]c1-2 [4,5-Dihydro-4,5-dioxo-1H-pyrrolo[2,3-f]quinoline-2,7,9-tricarboxylic acid]
water adsorption / solid form change (at a relative humidity of 85-95%, FIG. 5): adsorbed a molecule of water and was converted into a monohydrate compound | hygroscopicity (solid sample obtained in Example 1, FIG. 5): low hygroscopicity
